The values below come from US12048691B2 (SPERO THERAPEUTICS, INC., priority 2020, dated 2024).

≈ marks a conversion by molar mass, not a printed value. Counter-ions that a name gives are not always drawn. Like-named read-outs stand apart in the source and are kept apart here. Marks after values point to notes of the source that are not given here.

The nature of series [1]: Particle size distribution of tebipenem pivoxil HBr batches by sieve method. Type of series: physicochemical.
Series [2] concerns E. coli. The series is described as follows: Broth microdilution MIC against characterized subsets of UTI E. coli (2018-2020). Type of series: cell-based. Conditions: for MIC90: read-out: MIC90. From the text:
Isolates were collected from medical centers in all 9 US Census Regions and tested by broth microdilution. MIC interpretation was based on CLSI. Isolates that met MIC criteria were subjected to genome sequencing, followed by screening of extended-spectrum b-lactamase (ESBL) genes and epidemiology typing (MLST).
Background: In broth dilution the organism is exposed to a series of concentrations in liquid medium.

Series [3] has as its system Enterobacterales overproducing AmpC. The series is described as follows: Broth microdilution susceptibility of isolates overexpressing AmpC. Type of series: cell-based. How it is done:
(§1) Frozen-form broth microdilution panels were manufactured by JMI Laboratories and contained cation-adjusted Mueller-Hinton broth. Quality assurance was performed by sterility checks, colony counts, and testing CLSI recommended quality control reference strains.

The test system of series [4] is P. aeruginosa isolates that overproduced AmpC. Described as above. Type of series: cell-based. As to conditions: P. aeruginosa (32). How it is done:
as §1

Series [5] has as its system bacteremia secondary to cUTI/AP. Put plainly: Efficacy in patients with cUTI or acute pyelonephritis and associated bacteremia. Type of series: in vivo, human. From the text: The objective of this analysis was to evaluate the efficacy of TBP-PI-HBr in the subset of patients with associated bacteremia from a study of patients with either cUTI or acute pyelonephritis.

Another series relates to P. mirabilis. The series is described as follows: Broth microdilution against US UTI pathogens 2019-2020. Type of series: cell-based. Conditions: for % susceptible; CLSI: P. mirabilis (235), cefuroxime: oral breakpoint. How it is done:
(§2) This study assessed the in vitro activity of tebipenem and comparator agents against Enterobacterales (ENT) responsible for UTIs in the US during 2019-2020. A total of 3,576 ENT recovered from urine samples during the 2019-2020 STEWARD Surveillance Program were included in the study. Isolates were collected from medical centers in all 9 US Census Regions and were centrally tested for susceptibility by reference broth microdilution method. MIC interpretation was performed based on CLSI criteria.

Series [6] relates to E. coli. Described as above. As to conditions: E. coli (2,339); cefuroxime: oral breakpoint. Type of series: cell-based. The method, then:
as §2

The next series concerns K. pneumoniae. The description is as above. Type of series: cell-based. Conditions: K. pneumoniae (511); cefuroxime: oral breakpoint. The method, then:
as §2

The test system of the next series is Enterobacterales (ENT). Described as above. Type of series: cell-based. Conditions: All (3,567); cefuroxime: oral breakpoint. The method, then: as §2
Where [7] appears, read: Escherichia coli, CTX-M a, read-out: MIC50.
Setting [8] is: Escherichia coli, ESBL (360), read-out: MIC50.
The mark [9] stands for this setting: Escherichia coli, Non-ESBL (2035), read-out: MIC50.
Setting [10] is: Escherichia coli, Non-ESBL (2035).
The mark [11] stands for this setting: Enterobacterales (36), read-out: MIC50.
Where [12] appears, read: Enterobacterales (36), read-out: MIC90.
Setting [13] is: Enterobacterales (36), second cefuroxime line, footnote c (not given).

Regarding `Br.C[C@@H](O)[C@H]1C(=O)N2C(C(=O)OCOC(=O)C(C)(C)C)=C(SC3CN(C4=NCCS4)C3)[C@H](C)[C@H]12` [Lot 2], in series [1], the “particle size distribution, 45 um<” value came to 46%; the “particle size distribution, 75 um<” value is 6%; the “particle size distribution, 106 um<” value was determined as 6%; the “particle size distribution, 150 um<” value is listed as 2%. In [1], the “particle size distribution, 300 um<” value is 0% and the “particle size distribution, <45 um” value was determined as 40%.

`C[C@@H](O)[C@H]1C(=O)N2C(C(=O)OCOC(=O)C(C)(C)C)=C(SC3CN(C4=NCCS4)C3)[C@H](C)[C@H]12` [Tebipenem pivoxil]: in the series with E. coli [2], the MIC50 is on record as 0.03/- (-) μg/mL.

In the case of `C[C@@H](O)[C@H]1C(=O)N2C(C(=O)O)=C(SCCN=CN)C[C@H]12` [Imipenem], in [3], the MIC50 was 0.25 µg/mL (≈ 0.835 µM) and the MIC90 was determined as 0.5 µg/mL (≈ 1.67 µM). In addition, in series [3] (Enterobacterales (36)), the “CLSI %1” value came to 0.0%, the “CLSI % R” value came out at 0.0%, the “CLSI % S” value is reported as 100.0% and the MIC50 worked out at 0.25 μ/ml. Moreover, in series [3] (Enterobacterales (36)), the MIC90 was 0.5 μ/ml and the MIC range is reported as no more than 0.12 to 1 μ/ml. In series [4], the “CLSI %1” value was found to be 0.0%, the “CLSI % R” value was 3.1%, the “CLSI % S” value is 96.9% and the MIC range was in the range of 0.5 to 8 μ/ml.

Take `C[C@@H](O)[C@H]1C(=O)N2C(C(=O)OCOC(=O)C(C)(C)C)=C(SC3CN(C4=NCCS4)C3)[C@H](C)[C@H]12` [Tebipenem pivoxil HBr, tebipenem pivoxil hydrobromide]: the Clinical cure rate in [5] (EOT) is 100%; in series [5] (TOC) it was 97.9%; in [5] (late-follow-up (LFU) visit), “approximately 89%”. The Overall response rate was 93.6% in series [5] (end-of-treatment (EOT)) and 72.3% in series [5] (test-of-cure (TOC)).

On to `CO/N=C(\C(=O)N[C@@H]1C(=O)N2C(C(=O)[O-])=C(C[N+]3(C)CCCC3)CS[C@H]12)c1csc(N)n1` [Cefepime], for which, in [3], the MIC50 was determined as 0.5 µg/mL (≈ 1.04 µM) and the MIC90 was determined as 128 µg/mL (≈ 266 µM). In [4], the “CLSI %1” value is 40.6%, the “CLSI % R” value was determined as 12.5% and the “CLSI % S” value is 46.9%.

Consider `Cc1nnc(SCC2=C(C(=O)O)N3C(=O)[C@@H](NC(=O)Cn4cnnn4)[C@H]3SC2)s1` [CFZ, cefazolin], for which the “% susceptible by CLSI M100 criteria” value in the series with E. coli [2] (CTX-M a) came out at 0.0%; in the series with E. coli [2] (ESBL (360)), 0.6%; in the series on E. coli [2] (Non-ESBL (2035)), 96.4%. Further, the MIC50 in the series on E. coli [2] (setting [7]) is greater than 32 µg/mL; in the series on E. coli [2] (setting [8]), greater than 32 µg/mL; in the series with E. coli [2] (setting [9]), 2 µg/mL (≈ 4.4 µM). The MIC90 was greater than 32 µg/mL in the series on E. coli [2] (Escherichia coli, CTX-M a); greater than 32 µg/mL with E. coli [2] (Escherichia coli, ESBL (360)); 8 µg/mL (≈ 17.6 µM) with E. coli [2] (setting [10]).

Turning to `CN(C)c1cc(NC(=O)CNC(C)(C)C)c(O)c2c1C[C@H]1C[C@H]3[C@H](N(C)C)C(O)=C(C(N)=O)C(=O)[C@@]3(O)C(O)=C1C2=O` [Tigecycline], in [3], the MIC50 came to 0.25 µg/mL (≈ 0.427 µM) and the MIC90 came out at 1 µg/mL (≈ 1.71 µM). Also, in series [3] (Enterobacterales (36)), the “CLSI %1” value worked out at 5.6%, the “CLSI % R” value is reported as 0.0%, the “CLSI % S” value is given as 94.4^d % and the MIC range is no more than 0.06 to 4 μ/ml.

With Piperacillin-tazobactam, in series [3] (Enterobacterales (36)), the “CLSI %1” value is given as 19.4%, the “CLSI % R” value worked out at 33.3%, the “CLSI % S” value stood at 47.2% and the MIC50 turned out to be 32 μ/ml. For the same compound, the MIC90 in [3] (Enterobacterales (36)) is recorded as greater than 128 μ/ml. Also, in [4], the “CLSI %1” value was determined as 40.6%, the “CLSI % R” value worked out at 53.1%, the “CLSI % S” value worked out at 6.2% and the MIC50 was 128 μ/ml. In [4], this compound showed an MIC90 greater than 128 μ/ml.

For the compound `C[C@H]1[C@H](NC(=O)/C(=N\OC(C)(C)C(=O)O)c2csc(N)n2)C(=O)N1S(=O)(=O)O` [Aztreonam], in series [3] (Enterobacterales (36)), the “CLSI %1” value came to 14.3%, the “CLSI % R” value is 54.3% and the “CLSI % S” value came out at 31.4%. In [3] (setting [11]), the MIC50 is greater than 16 µg/mL. In addition, the MIC90 in [3] (setting [12]) is greater than 16 µg/mL. In addition, in [4], the “CLSI %1” value stood at 31.2%, the “CLSI % R” value was determined as 50.0% and the “CLSI % S” value is 18.8%.

For `CO/N=C(\C(=O)N[C@@H]1C(=O)N2C(C(=O)O)=C(COC(N)=O)CS[C@H]12)c1ccco1` [Cefuroxime], the “% susceptible; CLSI” value is reported as “(94.4) %” in the series on P. mirabilis; 94.4% in the series with P. mirabilis (listed as cefuroxime); “(63.1) %” in the series with E. coli [6]; “(75.3) %” with K. pneumoniae; “(63.5) %” in the series on Enterobacterales (ENT). In [3], this compound gave an MIC50 greater than 64 µg/mL. The MIC90 in [3] is greater than 64 µg/mL. The “CLSI %1” value in [3] (Enterobacterales (36)) and in series [3] (setting [13]) was 5.6% throughout. Besides, the “CLSI % R” value in series [3] (Enterobacterales (36)) and in [3] (setting [13]) was 94.4% each time. In addition, the “CLSI % S” value in series [3] (Enterobacterales (36)) is on record as 0.0^b %; in series [3] (setting [13]), 0.0^c %.

As to `Br.C[C@@H](O)[C@H]1C(=O)N2C(C(=O)OCOC(=O)C(C)(C)C)=C(SC3CN(C4=NCCS4)C3)[C@H](C)[C@H]12` [Lot 1, Comil-ed], in series [1], the “particle size distribution, 45 um<” value was determined as 35%; the “particle size distribution, 75 um<” value was 27%; the “particle size distribution, 106 um<” value turned out to be 16%; the “particle size distribution, 150 um<” value was found to be 1%. Also, in series [1], the “particle size distribution, 300 um<” value is recorded as 0% and the “particle size distribution, <45 um” value came to 21%.

For the compound `CO/N=C(\C(=O)N[C@@H]1C(=O)N2C(C(=O)O)=C(CSc3nc(=O)c(=O)[nH]n3C)CS[C@H]12)c1csc(N)n1` [Ceftriaxone, ceftriaxone], the “% susceptible by CLSI M100 criteria” value was determined as 0.0% in the series on E. coli [2] (CMYb (33)); 0.0% in the series on E. coli [2] (CTX-M a); 28.6% in the series with E. coli [2] (DHA(7)); 6.4% with E. coli [2] (ESBL (360)); 100% with E. coli [2] (Non-ESBL (2035)); 37.9% with E. coli [2] (Non-ST131 (203)). The “% susceptible by CLSI M100 criteria” value in the series on E. coli [2] (ST131 (222)) was 20.3%. Also, the MIC50 is greater than 8 µg/mL in the series with E. coli [2] (setting [7]); 2 µg/mL (≈ 3.61 µM) in the series with E. coli [2] (Escherichia coli, DHA(7), read-out: MIC50); greater than 8 µg/mL in the series on E. coli [2] (setting [8]); no more than 0.06 µg/mL in the series on E. coli [2] (setting [9]); greater than 8 µg/mL in series [3]. Further, the MIC90 in the series with E. coli [2] (Escherichia coli, CTX-M a) is greater than 8 µg/mL; in the series on E. coli [2] (Escherichia coli, ESBL (360)) it was greater than 8 µg/mL; in the series with E. coli [2] (setting [10]), 0.12 µg/mL (≈ 0.216 µM); in series [3], greater than 8 µg/mL. In addition, the “CLSI %1” value in series [3] (Enterobacterales (36)) amounted to 13.9%. The “CLSI % R” value in [3] (Enterobacterales (36)) was 63.9%. For the same compound, in series [3] (Enterobacterales (36)), the “CLSI % S” value is listed as 22.2%.

For the compound `CN(C)[C@@H]1C(O)=C(C(N)=O)C(=O)[C@@]2(O)C(O)=C3C(=O)c4c(O)cccc4[C@@](C)(O)[C@H]3C[C@@H]12` [Tetracycline], in series [3] (Enterobacterales (36)), the “CLSI %1” value stood at 5.6%, the “CLSI % R” value was determined as 44.4% and the “CLSI % S” value was 50.0%. Besides, the MIC50 in [3] (setting [11]) was 4 µg/mL (≈ 9 µM). The MIC90 in [3] (setting [12]) was greater than 16 µg/mL.

Consider Tebipenem pivoxil, for which, in the series on P. mirabilis, the MIC50 was found to be 0.12 µg/mL, the MIC90 amounted to 0.12 µg/mL and the “concentration inhibiting all PM” value came to 0.25 mg/L.
